The text below walks through data of EP0449346B1, “4-Piperidinyl-ergoline derivatives” (PHARMACIA S.p.A., priority 1990, dated 1991).

The subject of the experiment is rats with unilateral 6-hydroxy dopamine-induced lesion of the dopaminergic nigrostriatal patway. Description: Turning behaviour in rats: induction of controlateral turnings after a single treatment. It is filed as in vivo. An excerpt: More in particular, the ergoline derivatives according to the invention are active as antiparkinson agents, owing to their dopaminergic activity. The dopaminergic activity is indicated e.g. by an induction of controlateral turnings in rats with unilateral 6-hydroxy dopamine-induced lesion of the dopaminergic nigrostriatal patway. [According to the principles of N.Ungerstedt et al., Brain Research 24,485 (1970)].

Setting [1] is: single treatment, 0.5 mg/Kg s.c., in 6 hours.
Where [2] appears, read: single treatment, 0.5 mg/Kg s.c., turning rats / treated rats.

The structures appear in SMILES notation.

On to `CC(C)C[C@H]1C(=O)N2CCC[C@H]2[C@]2(O)O[C@](NC(=O)[C@@H]3C=C4c5cccc6[nH]c(Br)c(c56)C[C@H]4N(C)C3)(C(C)C)C(=O)N12` [Bromocriptine, bromocriptine, reference compound], for which, for the setting “rat, in vivo, sc, 1 mg/kg”, the “Number of controlateral turns (X) in 6 hours” value worked out at 1920 and the “Turning rats Treated rats” value is reported as 6/9.
`CN1C[C@H](CC2CC(=O)NC(=O)C2)C=C2c3cccc4[nH]cc(c34)C[C@H]21` [Example 1, 4-[(6-Methylergolen-Δ9,10-8β-yl)methyl]-piperidin-2,6-dione]: the “Number of controlateral turns (X) in 6 hours” value under setting [1] is 1540. Under setting [2], the “Turning rats Treated rats” value is given as 4/4.
On the same counts, the results for `CN1C(=O)CC(C[C@@H]2C=C3c4cccc5[nH]cc(c45)C[C@H]3N(C)C2)CC1=O` [Example 5, 1-Methyl-4-[(6-methylergolen-Δ9,10-8β-yl)methyl]-piperidin-2,6-dione] are 1830 and 5/5.
